{"source": "patent US9717792B2", "about": "“Combination therapy for cancer using HSP27 inhibitor and EGFR tyrosine kinase inhibitors or anti-folates” (The University Of British Columbia, priority 2012, dated 2017)", "key": {"Hsp27 mRNA": {"test_system": "Hsp27 mRNA", "experiment": "Hsp27 mRNA expression by quantitative RT-PCR in A549 cells", "settings": "5 or 10 μM Erlotinib for 24 or 48 hours; normalized to GAPDH mRNA", "experimental": "Hsp27 mRNA expression was analyzed by quantitative RT-PCR. Hsp27 mRNA levels were normalized to levels of GAPDH mRNA. Bars, SD. ** and *, differ from control (P<0.01 and P<0.05, respectively)."}, "A549 lung cancer cells": {"test_system": "A549 lung cancer cells", "experiment": "Western blot of protein levels in A549 cells", "type": "cell-based, human", "procedure": "Western blots: To perform Westerns, cell lysates were prepared under non-denaturing conditions. Briefly, the cell lysates were to immunoprecipition, and subsequently immunoblotted using antibody and visualized via electrophoresis and autoradiogram.\n48 and 72 hours of exposure.\nProtein expression was analyzed by western blotting. […] Flow cytometry was used to quantify the percentage of cells in each cell cycle phase.\n(§1) Cleaved PARP, p-EGFR(Tyr1068), EGFR, p-Hsp27(Ser82), Hsp27, and Beta-actin were assayed.\nWestern gels were run on cell protein prepared under standard non-denaturing conditions, and relative levels of p-Hsp27(Ser82), Hsp27, cleaved PARP, and beta-actin were detected using commercial antibodies from Cell Signalling (Danvers, USA). Protein levels from zero to 48 hours for a 1 microMolar pemetrexed exposure were measured.\n72 h later, cell viability was determined by crystal violet assay. […] Protein levels were also determined in these cells by immunoblotting."}, "Hsp27 OE A549 cells": {"test_system": "Hsp27 OE A549 cells", "experiment": "Hsp27-overexpressing A549 cells: western blotting and flow cytometry after Erlotinib", "type": "cell-based, human", "procedure": "The cell viability was determined by crystal violet assay.\nThe cells undergoing apoptosis (subG0/G1 fraction) were quantified using flow cytometry. FIGS. 4B and C.\nas §1"}, "HCC827 cells": {"test_system": "HCC827 cells", "experiment": "Western blot of protein levels in HCC827 parental cells", "type": "cell-based, human", "settings": "erlotinib 2.5 nanomolar; vs non-treated cells", "excerpt": "Levels of p-EGFR(Tyr1068), EGFR, Hsp27, Cleaved PARP, Cleaved and whole Caspase-3, and beta-actin (cell protein control) were detected."}, "[1]": {"target": "PKC-dependent phosphorylation of Hsp27 (Homo sapiens, UniProt P04792)", "sequence (P04792 whole entry)": "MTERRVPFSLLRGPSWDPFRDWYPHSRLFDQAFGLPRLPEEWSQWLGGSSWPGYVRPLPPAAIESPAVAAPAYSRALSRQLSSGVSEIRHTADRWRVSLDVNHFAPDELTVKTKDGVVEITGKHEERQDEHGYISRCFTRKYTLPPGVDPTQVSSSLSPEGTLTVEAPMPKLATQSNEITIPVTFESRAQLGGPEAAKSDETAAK", "settings": "cited from earlier work"}, "[2]": {"settings": "A549, erlotinib 0 to 20 micromolar, 72 hours"}, "[3]": {"settings": "A549 OE, erlotinib 0 to 20 micromolar, 72 hours"}}}
{"smiles": "C#Cc1cccc(Nc2ncnc3cc(OCCOC)c(OCCOC)cc23)c1", "note": "[Erlotinib, erlotinib]", "values": [{"measurement": "Hsp27 mRNA expression", "setting": "Hsp27 mRNA", "value": "increased Hsp27 expression"}, {"measurement": "amounts of EGFR, Hsp27 and p-Hsp27 (Western Blot)", "setting": "A549 lung cancer cells; 10 μM Erlotinib, 1, 6, 24, 48 and 72 hours", "value": "Increasing amounts"}, {"measurement": "cleaved PARP (Western Blot)", "setting": "A549 lung cancer cells; 10 μM Erlotinib, 1 to 72 hours", "value": "observed at all times following 24 hours of treatment"}, {"measurement": "p-EGFR (Tyr 1068) (Western Blot)", "setting": "A549 lung cancer cells; 10 μM Erlotinib, 1 to 72 hours", "value": "not observed following treatment"}, {"measurement": "p-Hsp27, Hsp27, p-EGFR, EGFR, cleaved PARP (Western Blot), repeat", "setting": "A549 lung cancer cells; 48 hours, erlotinib 2.5, 5 and 10 μM", "value": "Qualitatively similar results"}, {"measurement": "Cleaved PARP (Western)", "setting": "A549 lung cancer cells; [2]", "value": "increased"}, {"measurement": "p-EGFR(Tyr1068) (Western)", "setting": "A549 lung cancer cells; [2]", "value": "decrease"}, {"measurement": "Cleaved PARP (Western)", "setting": "Hsp27 OE A549 cells; [3]", "value": "increased"}, {"measurement": "p-EGFR(Tyr1068) (Western)", "setting": "Hsp27 OE A549 cells; [3]", "value": "decrease"}, {"measurement": "p-Hsp27(Ser82) (Western)", "setting": "Hsp27 OE A549 cells; [3]", "value": "dose-dependent increase"}, {"measurement": "apoptotic rate in cells with Hsp27 overexpression", "setting": "Hsp27 OE A549 cells; Hsp27 OE A549 vs Empty A549, varying levels of erlotinib", "value": "decreased apoptotic rate"}, {"measurement": "p-EGFR (Tyr068) (Western)", "setting": "HCC827 cells", "value": "decrease"}, {"measurement": "protein levels of P-Hsp27(ser82), Hsp27 (Western)", "setting": "HCC827 cells", "value": "increased"}]}
{"smiles": "CCc1cc(-c2oncc2-c2ccc(OC)cc2)c(O)cc1OC", "note": "[KRIBB3, 5-(5-Ethyl-2-hydroxy-4-methoxyphenyl)-4-(4-methoxyphenyl)isoxazole]", "values": [{"measurement": "IC50", "setting": "[1]", "value": 0.05, "unit": "µM"}]}
{"smiles": "Nc1nc2[nH]cc(CCc3ccc(C(=O)N[C@@H](CCC(=O)O)C(=O)O)cc3)c2c(=O)[nH]1", "note": "[pemetrexed]", "values": [{"measurement": "pHsp27 and cleaved PARP signals (Western)", "setting": "A549 lung cancer cells; pemetrexed 0, 0.25, 0.5, 1.0 microMoles, zero to 48 hours", "value": "increase with dose and are greatest at 48 hours"}]}
